Assay results published in the CheMixHub viscosity set.
Values joined by “and” are separate entries in the source; they are usually repeats but may differ in a detail not shown here. Identical values can stand only once.

Experiment: xn = mol fraction of the nth substance listed

CCN(CC)c1ccccc1 + CCCCCCCO
viscosity [mPa·s], 100 kPa
Details | x1 = 0.1216 | x1 = 0.2426 | x1 = 0.3349 | x1 = 0.4641 | x1 = 0.5612 | x1 = 0.6524 | x1 = 0.7356 | x1 = 0.8144 | x1 = 0.9141
303.15 K | 4.25 | 3.593 | 3.178 | 2.706 | 2.425 | 2.21 | 2.049 | 1.923 | 1.792
308.15 K | 3.658 | 3.095 | 2.735 | 2.323 | 2.079 | 1.895 | 1.763 | 1.665 | 1.577
313.15 K | 3.122 | 2.622 | 2.308 | 1.96 | 1.76 | 1.617 | 1.52 | 1.455 | 1.405
318.15 K | 2.671 | 2.129 | 1.826 | 1.535 | 1.398 | 1.319 | 1.278 | 1.257 | 1.243

CCCC[NH3+].O=[N+]([O-])[O-] + O
Details | viscosity [mPa·s]
298.15 K, 101 kPa, x1 = 0.9022 | 65.05

[Br-].[K+] + O
Details | viscosity
293.15 K, 101.3 kPa, x1 = 0.0009 | 0.9993 mPa·s
293.15 K, 101.3 kPa, x1 = 0.0018 | 0.9961 mPa·s
293.15 K, 101.3 kPa, x1 = 0.00893 | 0.9721 mPa·s
293.15 K, 101.3 kPa, x1 = 0.03478 | 0.9229 mPa·s
293.15 K, 101.3 kPa, x1 = 0.05127 | 0.9162 mPa·s
293.15 K, 101.3 kPa, x1 = 0.06722 | 0.9253 mPa·s
298.15 K, 100 kPa, x1 = 0.002229 | 0.8854 mPa·s
298.15 K, 100 kPa, x1 = 0.004266 | 0.8805 mPa·s
298.15 K, 100 kPa, x1 = 0.008299 | 0.8743 mPa·s
298.15 K, 100 kPa, x1 = 0.03864 | 0.8498 mPa·s
298.15 K, 101.3 kPa, x1 = 0.0009 | 0.8884 mPa·s and 0.8888 mPa·s
298.15 K, 101.3 kPa, x1 = 0.001798 | 0.8873 mPa·s
298.15 K, 101.3 kPa, x1 = 0.0018 | 0.8862 mPa·s
298.15 K, 101.3 kPa, x1 = 0.00359 | 0.8842 mPa·s
298.15 K, 101.3 kPa, x1 = 0.005732 | 0.8803 mPa·s
298.15 K, 101.3 kPa, x1 = 0.008927 | 0.8746 mPa·s
298.15 K, 101.3 kPa, x1 = 0.00893 | 0.8692 mPa·s
298.15 K, 101.3 kPa, x1 = 0.01421 | 0.8666 mPa·s
298.15 K, 101.3 kPa, x1 = 0.0177 | 0.8529 mPa·s
298.15 K, 101.3 kPa, x1 = 0.02116 | 0.8588 mPa·s
298.15 K, 101.3 kPa, x1 = 0.03478 | 0.8352 mPa·s
298.15 K, 101.3 kPa, x1 = 0.05127 | 0.8342 mPa·s
303.15 K, 101.3 kPa, x1 = 0.0009 | 0.7962 mPa·s
303.15 K, 101.3 kPa, x1 = 0.0018 | 0.7947 mPa·s
303.15 K, 101.3 kPa, x1 = 0.00893 | 0.7827 mPa·s
303.15 K, 101.3 kPa, x1 = 0.03478 | 0.7609 mPa·s
303.15 K, 101.3 kPa, x1 = 0.05127 | 0.7639 mPa·s
303.15 K, 101.3 kPa, x1 = 0.06722 | 0.7781 mPa·s
308.15 K, 101.3 kPa, x1 = 0.0009 | 0.7187 mPa·s and 0.7188 mPa·s
308.15 K, 101.3 kPa, x1 = 0.001798 | 0.7187 mPa·s
308.15 K, 101.3 kPa, x1 = 0.0018 | 0.7177 mPa·s
308.15 K, 101.3 kPa, x1 = 0.00359 | 0.7178 mPa·s
308.15 K, 101.3 kPa, x1 = 0.005732 | 0.7165 mPa·s
308.15 K, 101.3 kPa, x1 = 0.008927 | 0.7145 mPa·s
308.15 K, 101.3 kPa, x1 = 0.00893 | 0.7095 mPa·s
308.15 K, 101.3 kPa, x1 = 0.01421 | 0.7121 mPa·s
308.15 K, 101.3 kPa, x1 = 0.0177 | 0.7021 mPa·s
308.15 K, 101.3 kPa, x1 = 0.02116 | 0.7104 mPa·s
308.15 K, 101.3 kPa, x1 = 0.03478 | 0.6969 mPa·s
308.15 K, 101.3 kPa, x1 = 0.05127 | 0.7029 mPa·s
308.15 K, 101.3 kPa, x1 = 0.06722 | 0.7189 mPa·s
312.45 K, 100 kPa, x1 = 0.002229 | 0.661 mPa·s
312.85 K, 100 kPa, x1 = 0.01672 | 0.6499 mPa·s
313.55 K, 100 kPa, x1 = 0.03864 | 0.6449 mPa·s
313.85 K, 100 kPa, x1 = 0.004266 | 0.6426 mPa·s
313.95 K, 100 kPa, x1 = 0.008299 | 0.6399 mPa·s
318.15 K, 101.3 kPa, x1 = 0.0009 | 0.5963 mPa·s and 0.5961 mPa·s
318.15 K, 101.3 kPa, x1 = 0.001798 | 0.5966 mPa·s
318.15 K, 101.3 kPa, x1 = 0.0018 | 0.596 mPa·s
318.15 K, 101.3 kPa, x1 = 0.00359 | 0.5969 mPa·s
318.15 K, 101.3 kPa, x1 = 0.005732 | 0.5913 mPa·s
318.15 K, 101.3 kPa, x1 = 0.008927 | 0.5975 mPa·s
318.15 K, 101.3 kPa, x1 = 0.00893 | 0.5928 mPa·s
318.15 K, 101.3 kPa, x1 = 0.01421 | 0.5983 mPa·s
318.15 K, 101.3 kPa, x1 = 0.0177 | 0.5908 mPa·s
318.15 K, 101.3 kPa, x1 = 0.02116 | 0.5998 mPa·s
318.15 K, 101.3 kPa, x1 = 0.03478 | 0.593 mPa·s
318.15 K, 101.3 kPa, x1 = 0.05127 | 0.6036 mPa·s
318.15 K, 101.3 kPa, x1 = 0.06722 | 0.6221 mPa·s
321.85 K, 100 kPa, x1 = 0.002229 | 0.5597 mPa·s
322.75 K, 100 kPa, x1 = 0.01672 | 0.5528 mPa·s
322.95 K, 100 kPa, x1 = 0.004266 | 0.552 mPa·s

CCN(CC)c1ccccc1 + CCCCCCO
viscosity [mPa·s], 100 kPa
Details | x1 = 0.1057 | x1 = 0.1952 | x1 = 0.3004 | x1 = 0.4021 | x1 = 0.5011 | x1 = 0.6117 | x1 = 0.7135 | x1 = 0.8163 | x1 = 0.9045
303.15 K | 3.391 | 3.041 | 2.695 | 2.423 | 2.207 | 2.014 | 1.879 | 1.78 | 1.725
308.15 K | 2.85 | 2.524 | 2.226 | 1.997 | 1.814 | 1.667 | 1.577 | 1.525 | 1.501
313.15 K | 2.403 | 2.096 | 1.835 | 1.652 | 1.518 | 1.405 | 1.332 | 1.297 | 1.313
318.15 K | 2.105 | 1.801 | 1.569 | 1.421 | 1.314 | 1.218 | 1.151 | 1.119 | 1.148

CCCCCCCCCCCC(=O)OCC + CCCCCCO
viscosity [mPa·s], 101.33 kPa
Details | 293.15 K | 298.15 K | 303.15 K | 308.15 K | 313.15 K | 318.15 K | 323.15 K
x2 = 0.1 | 3.266 | 2.909 | 2.623 | 2.367 | 2.136 | 1.965 | 1.778
x2 = 0.2 | 3.214 | 2.867 | 2.596 | 2.334 | 2.09 | 1.918 | 1.731
x2 = 0.2999 | 3.216 | 2.872 | 2.575 | 2.309 | 2.095 | 1.896 | 1.724
x2 = 0.4 | 3.215 | 2.868 | 2.57 | 2.296 | 2.067 | 1.883 | 1.695
x2 = 0.4999 | – | 2.906 | 2.597 | 2.316 | 2.073 | 1.896 | 1.7
x2 = 0.5 | 3.25 | – | – | – | – | – | –
x2 = 0.5999 | 3.374 | – | – | – | – | – | –
x2 = 0.6 | – | 3.01 | 2.673 | 2.379 | 2.13 | 1.942 | 1.725
x2 = 0.7 | 3.486 | 3.101 | 2.771 | 2.459 | 2.186 | 1.965 | 1.761
x2 = 0.8 | 3.852 | 3.366 | 2.979 | 2.621 | 2.316 | 2.079 | 1.848
x2 = 0.8999 | 4.374 | – | – | – | – | – | –
x2 = 0.9 | – | 3.769 | 3.316 | 2.902 | 2.568 | 2.261 | 1.972

CCN(CC)c1ccccc1 + CC(=O)O
viscosity [mPa·s], 101 kPa
Details | 298.15 K | 318.15 K
x2 = 0.0992 | 2.081 | 1.363
x2 = 0.1985 | 2.343 | 1.489
x2 = 0.2959 | 2.722 | 1.597
x2 = 0.3986 | 3.462 | 1.91
x2 = 0.5022 | 4.639 | 2.408
x2 = 0.598 | 6.4 | 3.1
x2 = 0.7002 | 9.548 | 4.198
x2 = 0.7469 | 10.94 | 4.721
x2 = 0.7982 | 12 | 5.159
x2 = 0.8467 | 10.95 | 4.965
x2 = 0.9027 | 6.538 | 3.527
